In PMC11091702, “CD38 restrains the activity of extracellular cGAMP in a model of multiple myeloma” (iScience, 2024):
Like-named read-outs stand apart in the source and are kept apart here. Values belong to the molecule of their own block, whether it stands above or below them.

How the values were obtained:
[1] = target: T1, CD38 (rhCD38) (Homo sapiens, UniProt P28907); test: tryptophan fluorescence quenching titration; type: binding
T1 construct: ectodomain of recombinant human CD38 (His-tagged)
T1 sequence (P28907 45-300): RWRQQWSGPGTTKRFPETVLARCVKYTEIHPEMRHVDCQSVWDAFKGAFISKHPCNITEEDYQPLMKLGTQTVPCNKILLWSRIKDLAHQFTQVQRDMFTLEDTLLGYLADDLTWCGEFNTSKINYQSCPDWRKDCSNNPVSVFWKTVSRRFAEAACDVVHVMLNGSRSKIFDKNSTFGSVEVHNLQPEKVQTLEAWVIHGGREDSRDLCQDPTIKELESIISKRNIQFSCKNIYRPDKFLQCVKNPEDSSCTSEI

[2] = tested on: T2, NC(=O)c1ccc[n+]([C@@H]2O[C@H](COP(=O)([O-])OP(=O)(O)OC[C@H]3O[C@@H](n4cnc5c4ncn4ccnc54)[C@H](O)[C@@H]3O)[C@@H](O)[C@H]2O)c1; test: fluorescence hydrolase assay, Km determination; type: biochemical, Homo sapiens
T2 construct: recombinant human His-tagged CD38 protein

Molecule: NC(=O)c1ccc[n+]([C@@H]2O[C@H](COP(=O)([O-])OP(=O)(O)OC[C@H]3O[C@@H](n4cnc5c(N)ncnc54)[C@H](O)[C@@H]3O)[C@@H](O)[C@H]2O)c1 [β-NAD]
Kd [1]: 28 ± 9.4 µM

Kd ([1]; read-out: Kd): 46.3 ± 9.8 µM
Molecule: Nc1nc2c(ncn2[C@@H]2O[C@@H]3COP(=O)(S)O[C@H]4[C@@H](O)[C@H](n5cnc6c(N)ncnc65)O[C@@H]4COP(=O)(S)O[C@@H]2[C@@H]3O)c(=O)[nH]1 (stereo partly drawn) [2′3′-cG^sA^sMP]

Molecule: CD38 (rhCD38) (Homo sapiens)
Km [2]: 56.2 ± 8.9 x 10^−6 M
